# Test results from US11780845B2 (Relay Therapeutics, Inc., priority 2019, dated 2023).
# pIC50: −log10 of the molar value.
# Target: FGFR2 (Homo sapiens (Human), UniProt P21802)
# Experiment: FGFR2 Biochemical Caliper Assay
# Procedure: Compounds of the present invention were also tested in a FGFR2 Biochemical Caliper Assay. Compounds were prepared in 10 mM DMSO solution and serially diluted into 11 concentrations by 3-fold dilution. […] 5 uL of ATP solution (100 uM) was added to start the reaction and the plate was incubated for 90 minutes, then 70 uL of stopping buffer (0.5M EDTA) was added to terminate the reaction. Each well was analyzed using EZ reader.
# Sequence of FGFR2 (P21802 22-821): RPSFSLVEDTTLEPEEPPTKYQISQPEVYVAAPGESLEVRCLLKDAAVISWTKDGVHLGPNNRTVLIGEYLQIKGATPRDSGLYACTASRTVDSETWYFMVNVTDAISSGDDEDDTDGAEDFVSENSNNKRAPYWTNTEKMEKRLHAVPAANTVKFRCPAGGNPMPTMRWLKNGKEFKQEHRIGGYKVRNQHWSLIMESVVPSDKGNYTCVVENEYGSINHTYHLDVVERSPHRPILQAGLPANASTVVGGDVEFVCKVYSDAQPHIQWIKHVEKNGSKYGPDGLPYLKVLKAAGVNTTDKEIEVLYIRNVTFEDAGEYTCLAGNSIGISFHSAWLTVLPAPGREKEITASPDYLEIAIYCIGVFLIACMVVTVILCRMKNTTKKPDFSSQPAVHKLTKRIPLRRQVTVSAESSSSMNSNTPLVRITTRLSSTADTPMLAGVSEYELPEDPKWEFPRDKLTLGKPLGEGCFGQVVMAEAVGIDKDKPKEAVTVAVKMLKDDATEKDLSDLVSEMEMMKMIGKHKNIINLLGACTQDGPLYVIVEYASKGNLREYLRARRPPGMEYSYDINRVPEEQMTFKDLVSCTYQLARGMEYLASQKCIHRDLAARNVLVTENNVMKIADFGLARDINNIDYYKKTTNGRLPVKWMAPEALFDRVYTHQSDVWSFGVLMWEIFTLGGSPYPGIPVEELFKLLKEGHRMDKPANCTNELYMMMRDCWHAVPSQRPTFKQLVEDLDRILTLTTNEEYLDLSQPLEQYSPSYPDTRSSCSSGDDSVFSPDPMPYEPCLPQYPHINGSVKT
row,Structure (SMILES),pIC50
1,C=CC(=O)N(C)c1ccc(-c2c(-c3ccc(Oc4cccc(C)n4)cc3)c3c(N)ncnc3n2C)cc1 [Example 9],> 7.00
2,C=CC(=O)Nc1ccc(-c2c(-c3ccc(Oc4ccncc4)c(OC)c3)c3c(N)ncnc3n2C)cc1 [Example 39],6.60 to 7.00
3,C=C(C)C(=O)Nc1ccc(-c2c(-c3ccc(Oc4ccc(Cl)c(C)n4)cc3)c3c(N)ncnc3n2C)cc1 [Example 122],6.00 to 6.60
4,C=CC(=O)Nc1ccc(-c2c(-c3ccc(Nc4ncccn4)cc3)c3c(N)ncnc3n2C)cc1 [Example 58],> 7.00
5,C=C(C)C(=O)Nc1ccc(-c2c(-c3ccc(Oc4nccc(C)n4)c(F)c3)c3c(N)ncnc3n2C2CCOC2)cc1 (stereo not shown) [Example 536],> 7.00
6,C=CC(=O)Nc1ccc(-c2c(-c3ccc(Oc4ccc(C)nc4)c(OC)c3)c3c(N)ncnc3n2C)cc1 [Example 44],> 7.00
7,C=CC(=O)Nc1ccc(-c2c(-c3cnn(CC4CCNCC4)c3)c3c(N)ncnc3n2C)cc1 [Example 151],6.00 to 6.60
8,CCC(=O)Nc1ccc(-c2c(-c3ccc(Oc4ncccn4)cc3)c3c(N)ncnc3n2C)cc1 [Example 63],4.00 to 6.00
9,C=C(C)C(=O)Nc1ccc(-c2c(-c3ccc(Oc4nccc(C)n4)c(F)c3)c3c(N)ncnc3n2C)c(CN(C)C)c1 [Example 555],> 7.00
10,C=C(C)C(=O)Nc1ccc(-c2c(-c3ccc(Oc4cccc(C)n4)cc3)c3c(N)ncnc3n2CCN2CCOCC2)cc1 [Example 79],6.60 to 7.00
11,C=CC(=O)N1CCC(n2cc(-c3c(-c4cc(OC)c(Cl)cc4F)c4c(N)ncnc4n3C)cn2)CC1 [Example 614],4.00 to 6.00
12,C=C(C)C(=O)Nc1ccc(-c2c(-c3ccc(C(=O)N(C)CCOC)cc3)c3c(N)ncnc3n2C)cc1 [Example 284],4.00 to 6.00
13,Cn1c(-c2ccc(NC(=O)C3CO3)cc2)c(-c2ccc(C(=O)N3CCCC3)cc2)c2c(N)ncnc21 (stereo not shown) [Example 586],6.60 to 7.00
14,C=C(C)C(=O)Nc1ccc(-c2c(-c3ccc(C(=O)NCC4COC4)cc3)c3c(N)ncnc3n2C)cc1 [Example 366],6.60 to 7.00
15,C=C(C)C(=O)Nc1ccc(-c2c(-c3ccc(Oc4ccc(F)cn4)c(O)c3)c3c(N)ncnc3n2C)cc1 [Example 111],4.00 to 6.00
16,C=C(C)C(=O)Nc1ccc(-c2c(-c3ccc(Oc4cccc(C)n4)cc3)c3c(N)ncnc3n2CCN(C)C)cc1 [Example 80],6.60 to 7.00

row,Structure (SMILES),pIC50
1,C=C(C)C(=O)Nc1ccc(-c2c(-c3cc(F)c(Oc4ccccn4)c(F)c3)c3c(N)ncnc3n2C)cc1 [Example 107],6.00 to 6.60
2,"C=C(C)C(=O)Nc1ccc(-c2c(-c3ccc(C(=O)N4CCCC4)cc3)c3c(N)ncnc3n2C)c([C@@H]2CCCO2)c1 (single isomer, unassigned) [Example 510]",> 7.00
3,C=C(C)C(=O)Nc1ccc(-c2c(-c3ccc(Oc4cccc(C)c4)cc3)c3c(N)ncnc3n2C)cc1 [Example 29],6.00 to 6.60
4,C=C(C)C(=O)Nc1ccc(-c2c(-c3ccc(S(=O)(=O)NCC(F)(F)F)cc3)c3c(N)ncnc3n2C)cc1 [Example 326],4.00 to 6.00
5,C=C(C)C(=O)Nc1ccc(-c2c(-c3ccc(Oc4ccc(F)nc4)c(O)c3)c3c(N)ncnc3n2C)cc1 [Example 112],4.00 to 6.00
6,C=CCC(=O)Nc1ccc(-c2c(-c3ccc(Oc4cccc(C)n4)c(OC)c3)c3c(N)ncnc3n2C)cc1 [Example 2],6.00 to 6.60
7,C=C(C)C(=O)Nc1ccc(-c2c(-c3ccc4c(ccn4S(C)(=O)=O)c3)c3c(N)ncnc3n2C)cc1 [Example 281],4.00 to 6.00
8,C=C(C)C(=O)Nc1ccc(-c2c(-c3ccc4c(c3)CCC(=O)N4)c3c(N)ncnc3n2C)cc1 [Example 147],4.00 to 6.00
9,C=CC(=O)N1CCC(c2c(-c3ccc(Oc4cccc(C)n4)c(OC)c3)c3c(N)ncnc3n2C)=CC1C (stereo not shown) [Example 679],> 7.00
10,C=C(C)C(=O)Nc1ccc(-c2c(-c3cnn(Cc4ccncc4)c3)c3c(N)ncnc3n2C)cc1 [Example 179],4.00 to 6.00
11,C=C(C)C(=O)Nc1ccc(-c2c(-c3ccc(C(=O)N(C)C(CF)CF)cc3)c3c(N)ncnc3n2C)cc1 [Example 412],> 7.00
12,C=C(C)C(=O)Nc1ccc(-c2c(-c3ccc(C(=O)NCCO)cc3)c3c(N)ncnc3n2C)cc1 [Example 322],6.00 to 6.60
13,C=C(C)C(=O)Nc1ccc(-c2c(-c3ccc(C(=O)NCC4CC(O)C4)cc3)c3c(N)ncnc3n2C)cc1 (stereo not shown) [Example 323],6.60 to 7.00
14,CC(Cl)C(=O)Nc1ccc(-c2c(-c3ccc(C(=O)N4CCCC4)cc3)c3c(N)ncnc3n2C)cc1 (stereo not shown) [Example 561],6.00 to 6.60
15,C=C(C)C(=O)Nc1ccc(-c2c(-c3ccc(Oc4ncc(N(C)C)cn4)cc3)c3c(N)ncnc3n2C)cc1 [Example 456],6.00 to 6.60
16,Cn1c(-c2ccc(C#N)nc2)c(-c2ccc(C(=O)N3CCCC3)cc2)c2c(N)ncnc21 [Example 493],4.00 to 6.00

# Second part, the compound after the results:
row,pIC50,Structure (SMILES)
1,4.00 to 6.00,"C=C(C)C(=O)Nc1ccc(-c2c(C3=CC[C@H](C(=O)N4CC[C@@H](F)C4)CC3)c3c(N)ncnc3n2C)cc1 (single isomer, unassigned) [Example 576]"
2,4.00 to 6.00,"C=C(C)C(=O)Nc1ccc(-c2c(C3=CC[C@H](C(=O)N4CC[C@@H](OC)C4)CC3)c3c(N)ncnc3n2C)cc1 (single isomer, unassigned) [Example 580]"
3,6.00 to 6.60,C=C(C)C(=O)Nc1ccc(-c2c(-c3ccc(C(=O)N4CC5CC4(CO)C5)cc3)c3c(N)ncnc3n2C)cc1 [Example 547]
4,4.00 to 6.00,C=C(C)C(=O)Nc1ccc(-c2c(-c3ccc(C(=O)N(C)C4CCOC4)cc3)c3c(N)ncnc3n2C)cc1 (stereo not shown) [Example 247]
5,4.00 to 6.00,C=C(C)C(=O)Nc1ccc(-c2c(-c3ccc(N(C)C)nc3)c3c(N)ncnc3n2C)cc1 [Example 131]
6,4.00 to 6.00,C=C(C)C(=O)Nc1ccc(-c2c(-c3ccc4[nH]c(C(=O)O)cc4c3)c3c(N)ncnc3n2C)cc1 [Example 185]
7,6.00 to 6.60,C=C(C)C(=O)Nc1ccc(-c2c(C3=CCC(C(=O)NCC(C)(C)OC)CC3)c3c(N)ncnc3n2C)cc1 (stereo not shown) [Example 394]
8,4.00 to 6.00,C=C(C)C(=O)Nc1ccc(-c2c(-c3ccc(CN4CC[C@@H](O)C4)cc3)c3c(N)ncnc3n2C)cc1 [Example 146]
9,4.00 to 6.00,C=C(C)C(=O)Nc1ccc(-c2c(-c3cc(OC)ncc3OC)c3c(N)ncnc3n2C)cc1 [Example 144]
10,4.00 to 6.00,C=C(C)C(=O)Nc1ccc(-c2c([C@H]3CC[C@@H](C(=O)N4CCCC4)CC3)c3c(N)ncnc3n2C)cc1 [Example 577]
11,> 7.00,C=C(C)C(=O)Nc1ccc(-c2c(-c3ccc(C(=O)N4CCC[C@H]4C#N)cc3)c3c(N)ncnc3n2C)cc1 [Example 359]
12,4.00 to 6.00,C=C(C)C(=O)Nc1ccc(-c2c(-c3ccc(C(=O)N4CC5(CCC5)C4)cc3)c3c(N)ncnc3n2C)cc1 [Example 231]
13,> 7.00,C=C(C)C(=O)Nc1ccc(-c2c(-c3ccc(C(=O)NC4CC(F)C4)cc3)c3c(N)ncnc3n2C)cc1 (stereo not shown) [Example 364]
14,6.00 to 6.60,C=C(C)C(=O)Nc1ccc(-c2c(C3=CCC(Oc4ccn(C)n4)CC3)c3c(N)ncnc3n2C)cc1 (stereo not shown) [Example 551]
15,4.00 to 6.00,C=C(C)C(=O)Nc1ccc(-c2c(-c3ccc(C(=O)N4CC(F)(F)C4)cc3)c3c(N)ncnc3n2C)cc1 [Example 259]
16,4.00 to 6.00,"C=C(C)C(=O)Nc1ccc(-c2c(C3=CC[C@@H](Oc4ccn(C)n4)CC3)c3c(N)ncnc3n2C)cc1 (single isomer, unassigned) [Example 549]"
17,6.60 to 7.00,C=C(C)C(=O)Nc1ccc(-c2c(-c3ccc(C(=O)NCC4CCC4)c(C(C)=O)c3)c3c(N)ncnc3n2C)cc1 [Example 457]
